Experimental data published in the supplement of paper PMC13380429.

Tests used:
[1] = test system: A549-ACE2 infected with SARS-CoV-2; assay: SARS-CoV-2 infection rate relative to DMSO; higher = more infection; conditions: 24 h
[2] = test system: A549-ACE2; assay: phospholipidosis EC50; higher = less potent phospholipidosis inducer
[3] = test system: A549-ACE2 infected with SARS-CoV-2; assay: cell count relative to DMSO; higher = less toxic; conditions: 24 h
[4] = test system: Calu-3; assay: relative viability EC50 (midpoint between 100% and the lowest measured viability); higher = less toxic; conditions: 72 h
[5] = test system: HepG2; assay: as above; conditions: 72 h
[6] = test system: Caco-2; assay: as above; conditions: 72 h
[7] = test system: U2OS; assay: as above; conditions: 72 h
[8] = test system: A549-ACE2 infected with SARS-CoV-2; assay: morphology score (similarity to uninfected cells); higher = more like uninfected cells; conditions: 24 h
[9] = test system: Calu-3; assay: cell viability relative to DMSO; higher = less toxic; conditions: 72 h
[10] = test system: HepG2; assay: as above; conditions: 72 h
[11] = test system: Caco-2; assay: as above; conditions: 72 h
[12] = test system: U2OS; assay: as above; conditions: 72 h
[13] = test system: Calu-3; assay: drug sensitivity score (DSS) for viability; higher = more toxic; extreme values may be limits of the assay; conditions: 72 h
[14] = test system: HepG2; assay: as above; conditions: 72 h
[15] = test system: Caco-2; assay: as above; conditions: 72 h
[16] = test system: U2OS; assay: as above; conditions: 72 h
[17] = test system: A549-ACE2; assay: drug-induced phospholipidosis relative to tamoxifen; higher = more phospholipidosis
[18] = test system: Vero E6; assay: relative viability EC50 (midpoint between 100% and the lowest measured viability); higher = less toxic; conditions: 72 h
[19] = test system: Vero E6; assay: cell viability relative to DMSO; higher = less toxic; conditions: 72 h
[20] = test system: Vero E6; assay: drug sensitivity score (DSS) for viability; higher = more toxic; extreme values may be limits of the assay; conditions: 72 h

CN1CC2c3ccccc3Oc3ccc(Cl)cc3C2C1 (centres undefined) [asenapine]
Conditions	SARS-CoV-2 infection rate [%]	cell count [%]	cell viability [%]	morphology score	phospholipidosis EC50 [µM]
[1], 0.3 µM	94	–	–	–	–
[1], 3 µM	59	–	–	–	–
[1], 10 µM	32	–	–	–	–
[1], 30 µM	30	–	–	–	–
[2], 24 h	–	–	–	–	7.2
[2], 48 h	–	–	–	–	7.65
[2], 72 h	–	–	–	–	9.6
[3], 0.3 µM	–	102	–	–	–
[3], 3 µM	–	118	–	–	–
[3], 10 µM	–	109	–	–	–
[3], 30 µM	–	102	–	–	–
[8], 0.3 µM	–	–	–	0.2	–
[8], 3 µM	–	–	–	0.63	–
[8], 10 µM	–	–	–	0.71	–
[8], 30 µM	–	–	–	0.39	–
[9], 1 nM	–	–	94.9	–	–
[9], 10 nM	–	–	96.5	–	–
[9], 100 nM	–	–	90.8	–	–
[9], 1000 nM	–	–	104	–	–
[9], 10000 nM	–	–	89.2	–	–
[10], 1 nM	–	–	112	–	–
[10], 10 nM	–	–	106	–	–
[10], 100 nM	–	–	103	–	–
[10], 1000 nM	–	–	96.3	–	–
[10], 10000 nM	–	–	96.7	–	–
[11], 1 nM	–	–	94.9	–	–
[11], 10 nM	–	–	108	–	–
[11], 100 nM	–	–	106	–	–
[11], 1000 nM	–	–	108	–	–
[11], 10000 nM	–	–	109	–	–
[12], 1 nM	–	–	99.5	–	–
[12], 10 nM	–	–	105	–	–
[12], 100 nM	–	–	101	–	–
[12], 1000 nM	–	–	108	–	–
[12], 10000 nM	–	–	98.2	–	–

Conditions	drug sensitivity score	relative viability EC50 [µM]
[4]	–	> 10
[5]	–	> 10
[6]	–	> 10
[7]	–	> 10
[13]	0	–
[14]	0	–
[15]	0	–
[16]	0	–

drug-induced phospholipidosis [%], [17]
Conditions	0.3 µM	0.833333 µM	3.33333 µM	6.66667 µM	10 µM	30 µM
24 h	0.93	1.66	23.3	56.2	82.5	115
48 h	2.52	0.05	14.9	49	77.2	111
72 h	4.59	1.7	16.8	43.5	70.2	117

CCOc1cn(-c2ccc(F)cc2C)nc1C(=O)Nc1ccc(Oc2ccnc3cc(OC)c(OC)cc23)c(F)c1 [LDC1267]
Conditions	SARS-CoV-2 infection rate [%]	cell count [%]	cell viability [%]	morphology score	phospholipidosis EC50 [µM]
[1], 0.3 µM	91	–	–	–	–
[1], 3 µM	107	–	–	–	–
[1], 10 µM	90	–	–	–	–
[1], 30 µM	93	–	–	–	–
[2], 24 h	–	–	–	–	3.79
[2], 72 h	–	–	–	–	3.79
[3], 0.3 µM	–	102	–	–	–
[3], 3 µM	–	100	–	–	–
[3], 10 µM	–	91	–	–	–
[3], 30 µM	–	84	–	–	–
[8], 0.3 µM	–	–	–	0.33	–
[8], 3 µM	–	–	–	0.25	–
[8], 10 µM	–	–	–	0.23	–
[8], 30 µM	–	–	–	0.15	–
[9], 1 nM	–	–	100	–	–
[9], 10 nM	–	–	99	–	–
[9], 100 nM	–	–	95.3	–	–
[9], 1000 nM	–	–	87.9	–	–
[9], 10000 nM	–	–	73	–	–
[10], 1 nM	–	–	106	–	–
[10], 10 nM	–	–	94.7	–	–
[10], 100 nM	–	–	99.9	–	–
[10], 1000 nM	–	–	88.5	–	–
[10], 10000 nM	–	–	76.2	–	–
[11], 1 nM	–	–	95.3	–	–
[11], 10 nM	–	–	96.1	–	–
[11], 100 nM	–	–	94.7	–	–
[11], 1000 nM	–	–	91.9	–	–
[11], 10000 nM	–	–	68.7	–	–
[12], 1 nM	–	–	97.5	–	–
[12], 10 nM	–	–	101	–	–
[12], 100 nM	–	–	98.4	–	–
[12], 1000 nM	–	–	102	–	–
[12], 10000 nM	–	–	83.1	–	–
[19], 1 nM	–	–	105	–	–
[19], 10 nM	–	–	103	–	–
[19], 100 nM	–	–	103	–	–
[19], 1000 nM	–	–	96.9	–	–
[19], 10000 nM	–	–	100	–	–

Conditions	drug sensitivity score	relative viability EC50 [µM]
[5]	–	> 10
[7]	–	> 10
[13]	2	–
[14]	2.2	–
[15]	2.4	–
[16]	0.3	–
[18]	–	> 10
[20]	0	–

drug-induced phospholipidosis [%], [17]
Conditions	0.3 µM	0.833333 µM	3.33333 µM	6.66667 µM	10 µM	30 µM
24 h	2.46	2.17	18.8	41.1	67	35
48 h	6.67	3.21	28.6	39.5	–	48.4
72 h	7.89	6.46	31.2	48.2	–	61.4
